The source of these data is ChEMBL document CHEMBL1127955, “Enantioselective synthesis of the optical isomers of broad-spectrum orally active antifungal azoles, Sch 42538 and Sch 45012” (1994).

Holding throughout (format): functional
The test system of experiment [1] is Mus musculus. Put plainly: Compound was tested for the oral activity in CF-1 mice infected with Aspergillus flavus at a dose of 66 mg/kg of 4 days post infection. The following applies: for Survival: 66 mg/kg; for survival at 66 mg/kg: Mus musculus, po, 96 h.
Experiment [2] has as its system Mus musculus. Put plainly: Compound was tested for the colony forming units of C. Albicans in mice at a dose of 10 mg/kg expressed as geometric mean.
Experiment [3] has as its system Mus musculus. In words: Compound was tested for the oral activity in CF-1 mice infected with Aspergillus flavus at a dose of 100 mg/kg of 4 days post infection. The note with it: for Survival: 100 mg/kg; for survival at 100 mg/kg: Mus musculus, po, 96 h.
The test system of experiment [4] is Mus musculus. In words: Compound was tested for the colony forming units of Aspergillus flavus in mice at a dose of 100 mg/kg expressed as geometric mean.
The subject of experiment [5] is Mus musculus. Put plainly: Compound was tested for the oral activity in CF-1 mice infected with C. Albicans at a dose of 25 mg/kg of 4 days post infection. The following applies: for Survival: 25 mg/kg; for survival at 25 mg/kg: Mus musculus, po, 96 h.
Experiment [6] has as its system Mus musculus. Put plainly: Compound was tested for the colony forming units of C. Albicans in mice at a dose of 50 mg/kg expressed as geometric mean.
Experiment [7] has as its system Mus musculus. Put plainly: Compound was tested for the oral activity in CF-1 mice infected with C. Albicans at a dose of 10 mg/kg of 4 days post infection.
Experiment [8] relates to Mus musculus. In words: Compound was tested for the colony forming units of C. Albicans in mice at a dose of 25 mg/kg expressed as geometric mean.
The species entered for experiment [9] is Mus musculus. In words: Compound was tested for the oral activity in CF-1 mice infected with C. Albicans in eagles essential medium at pH 7.0 duration of 48 h. More on the design: unit not given here.
The test system of experiment [10] is Mus musculus. In words: Compound was tested for the oral activity in CF-1 mice infected with C. Albicans at a dose of 50 mg/kg of 4 days post infection. The following applies: for Survival: 50 mg/kg; for survival at 50 mg/kg: Mus musculus, po, 96 h.
The subject of experiment [11] is Mus musculus. In words: Compound was tested for the colony forming units of Aspergillus flavus in mice at a dose of 66 mg/kg expressed as geometric mean.
For experiment [12], the species on record is Mus musculus. Put plainly: Compound was tested for the oral activity in CF-1 mice infected with Aspergillus flavus by sabouraud dextrose broth of pH 5.7 duration of 72 h. On the set-up: unit not given here.

Where “and” joins values, the source holds several entries; their conditions need not be identical. Equal values may be shown once.

For `CCC(C)n1ncn(-c2ccc(N3CCN(c4ccc(OC[C@@H]5COC(Cn6cncn6)(c6ccc(F)cc6F)C5)cc4)CC3)cc2)c1=O` (single isomer, unassigned), the Survival in [1] was 50%; in experiment [3], 100%; in experiment [5], 100%; in [7] (10 mg/kg), 40% and 90%; in experiment [10], 100%. Besides, the CFU in experiment [2] (10 mg/kg) is 7.42 and 5.92; in [4], 1.95; in [6] (50 mg/kg), 4.99; in [8] (25 mg/kg), 5.14; in [11], 2.25. Besides, the MIC in experiment [9] came out at 0.0039; in experiment [12], 0.0625.

With `CC[C@@H](C)n1ncn(-c2ccc(N3CCN(c4ccc(OC[C@@H]5COC(Cn6cncn6)(c6ccc(F)cc6F)C5)cc4)CC3)cc2)c1=O` (single isomer, unassigned), the Survival in experiment [1] turned out to be 0%; in [3], 10%; in experiment [5], 0%; in experiment [10], 0%. The CFU in experiment [6] (50 mg/kg) and in experiment [8] (25 mg/kg) was 9 throughout. Moreover, the MIC in experiment [9] was 0.0313; in experiment [12], greater than 8.

As to `CCC(C)n1ncn(-c2ccc(N3CCN(c4ccc(OC[C@H]5CO[C@](Cn6cncn6)(c6ccc(F)cc6F)O5)cc4)CC3)cc2)c1=O` (single isomer, unassigned) [SAPERCONAZOLE], the survival at 100 mg/kg in experiment [3] came out at 0%. For the same molecule, the CFU in experiment [6] (50 mg/kg) is 8.2 and 9. The MIC in experiment [9] is 0.0039; in [12], 0.0313. In experiment [10], the Survival is 20% and 0%.

The molecule `CC[C@H](C)n1ncn(-c2ccc(N3CCN(c4ccc(OC[C@@H]5COC(Cn6cncn6)(c6ccc(F)cc6F)C5)cc4)CC3)cc2)c1=O` (single isomer, unassigned) [SCH-49999] had a survival at 66 mg/kg in [1] of 0%. In [3], this molecule gave a survival at 100 mg/kg of 20%. In experiment [5], the survival at 25 mg/kg turned out to be 0%. Also, the CFU in experiment [6] is 7.84; in experiment [8], 9. Moreover, the MIC in experiment [9] is on record as 0.0625; in [12] it was greater than 8. The molecule also yielded a survival at 50 mg/kg in experiment [10] of 20%.

The molecule `CCC(C)n1ncn(-c2ccc(N3CCN(c4ccc(OC[C@@H]5CO[C@@](Cn6cncn6)(c6ccc(Cl)cc6Cl)O5)cc4)CC3)cc2)c1=O` (stereo partly drawn) [ITRACONAZOLE] registered a survival at 66 mg/kg in experiment [1] of 0%. Moreover, the CFU in [2] worked out at 8.87; in [6], 6.68; in experiment [8] it was 9. In experiment [3], this molecule registered a survival at 100 mg/kg of 20%. In [5], this molecule had a survival at 25 mg/kg of 0%. This molecule returned a survival at 10 mg/kg in [7] (Mus musculus, po, 96 h) of 10%. In addition, the MIC in experiment [9] came out at 0.0078; in [12] it was 0.125. This molecule also had a survival at 50 mg/kg in experiment [10] of 60%.
